Patent US20020106348A1, “Cancer therapeutics involving the administration of 2-methoxyestradiol and an agent that increases intracellular superoxide anion” (priority 2000, published 2002)
Read-outs that look alike come from different tables or passages of the source.

Assays:
[1] = tested on: leukemia cells from a CML (chronic myelogenous leukemia) patient in relapsed blast crisis; test: Induction of apoptosis in primary leukemia cells from a CML patient; format: cell-based, human; conditions: in vitro
[2] = tested on: ML-1, HL-60 and CLL cells; test: HPLC analysis of cellular metabolites of [3H]2-ME; format: in vitro ADME, human; conditions: [3H]2-ME 0.5 μCi/ml, 5 h
Method: (§1) To determine cellular uptake of 2-ME, cells were incubated with 1 μM [^3H]2-ME (0.5 μCi/ml) for 5 h and when washed twice with cold PBS. Radioactivity associated with the cell pellets or the culture medium was quantitated by liquid scintillation counting. 2-ME concentrations were calculated based on the specific radioactivity of [^3H]2-ME, cell number, and the mean cell volume as measured by a Coulter Counter equipped with a 256-Channelyzer. HPLC was used to analyze potential cellular metabolites of 2-ME. Cells were incubated with [^3H]2-ME (0.5 μCi/ml) for 5 h, washed twice with PBS, and then extracted with 50% methanol. The extracts were analyzed by HPLC equipped with a UV detector (284 nm) and an on-line liquid scintillation counter, using a μBondapak C18 reversed-phase column and the following running conditions: 1 ml/min; 0-5 min, 100% buffer A (water:acetontrile:acetic acid=59:40:1); 5-17 min, a linear gradient of 0->100% buffer B (water:acetontrile:acetic acid=39:60:1); 17-30 min, 100% B.

[3] = tested on: leukemia cell lines, primary CLL cells, and normal lymphocytes; test: Cellular accumulation of [3H]2-ME; format: in vitro ADME, human; conditions: 1 μM [3H]2-ME, 5-h incubation
Method: as §1

HL-60 = test: Release of cytochrome c to cytosol; format: cell-based, human

SMILES: COc1cc2c(cc1O)CC[C@@H]1[C@@H]2CC[C@]2(C)[C@@H](O)CC[C@@H]12 [2-ME, 1,3,5(10)-estratrien-2,3,17b-triol 2 methylether]
- apoptosis in primary CML cells [1]: induced apoptosis
- cellular drug metabolites [2]: no significant drug metabolites
- intracellular concentrating of drug [3]: approximately 10 fold
- cytosolic cytochrome c (HL-60; at 12 and 14 h): significant amounts of cytosolic cytochrome c were detected
- cytosolic cytochrome c (HL-60; during the first 10 h): no cytochrome c was present in cytosol
- rhodamine-123 fluorescence intensity (HL-60 cells; 14 h exposure, control 70-100 arbitrary units): 20-40 units
- rhodamine-123 retention (HL-60 cells; by 22 h): almost all the cells had lost their ability to retain rhodamine-123
- rhodamine-123 retention (HL-60 cells; first 6 h of incubation): no obvious loss of dye retention
